Laboratory results from patent US20250231185A1, “Coronavirus T Cell Epitopes, Megapools and Uses Thereof” (La Jolla Institute for Immunology, priority 2021, published 2025).
Where two headings read alike, the source gives them in different places.

Experiments:
CD8+ T cells [1] = test: Meta-analysis of published SARS-CoV-2 CD8 T cell epitope data curated in the IEDB (25 studies); assay type: cell-based, human; details: dominant = recognized by 3 or more donors/different studies
CD8+ T cells [2] = details: cited from earlier work
[3] = SARS-CoV-2-derived CD8 epitopes
[4] = T cell type (CD4 or CD8) recognizing the SARS-CoV-2 epitope
[5] = SARS-CoV-2 Ag S, T cell type recognizing the epitope

## 1056 (IEYPIIGDEL) [compound 1056]
CD8+ T cells [1]; [3]
  Dominant: Yes (more dominant epitopes are defined by being recognized by 3 or more donors/different studies)
CD8+ T cells [2]; [4]
  Restriction: CD8

## 943 (KLFDRYFKY) [compound 943]
CD8+ T cells [1]; [3]
  Dominant: Yes (more dominant epitopes are defined by being recognized by 3 or more donors/different studies)
CD8+ T cells [2]; [4]
  Restriction: CD8

## 1401 (AQALNTLVKQL) [compound 1401]
CD8+ T cells [1]; SARS-CoV-2 Ag S, CD8 epitopes
  Dominant: Yes (more dominant epitopes are defined by being recognized by 3 or more donors/different studies)
CD8+ T cells [2]; [5]
  Restriction: CD8

## 1042 (IVDTVSALV) [compound 1042]
CD8+ T cells [1]; [3]
  Dominant: Yes (more dominant epitopes are defined by being recognized by 3 or more donors/different studies)
CD8+ T cells [2]; [4]
  Restriction: CD8

## 961 (ISDYDYYRY) [compound 961]
CD8+ T cells [1]; [3]
  Dominant: Yes (more dominant epitopes are defined by being recognized by 3 or more donors/different studies)
CD8+ T cells [2]; [4]
  Restriction: CD8

## 1425 (FPQSAPHGVVF) [compound 1425]
CD8+ T cells [1]; SARS-CoV-2 Ag S, CD8 epitopes
  Dominant: Yes (more dominant epitopes are defined by being recognized by 3 or more donors/different studies)
CD8+ T cells [2]; [5]
  Restriction: CD8

## 1008 (RILGAGCFV) [compound 1008]
CD8+ T cells [1]; [3]
  Dominant: Yes (more dominant epitopes are defined by being recognized by 3 or more donors/different studies)
CD8+ T cells [2]; [4]
  Restriction: CD8

## 1026 (VVYRGTTTY) [compound 1026]
CD8+ T cells [1]; [3]
  Dominant: Yes (more dominant epitopes are defined by being recognized by 3 or more donors/different studies)
CD8+ T cells [2]; [4]
  Restriction: CD8

## 1029 (KLNVGDYFV) [compound 1029]
CD8+ T cells [1]; [3]
  Dominant: Yes (more dominant epitopes are defined by being recognized by 3 or more donors/different studies)
CD8+ T cells [2]; [4]
  Restriction: CD8

## 1345 (IPIGAGICASY) [compound 1345]
CD8+ T cells [1]; SARS-CoV-2 Ag S, CD8 epitopes
  Dominant: Yes (more dominant epitopes are defined by being recognized by 3 or more donors/different studies)
CD8+ T cells [2]; [5]
  Restriction: CD8

## 1052 (VLWAHGFEL) [compound 1052]
CD8+ T cells [1]; [3]
  Dominant: Yes (more dominant epitopes are defined by being recognized by 3 or more donors/different studies)
CD8+ T cells [2]; [4]
  Restriction: CD8

## 1025 (VVYRGTTTYK) [compound 1025]
CD8+ T cells [1]; [3]
  Dominant: Yes (more dominant epitopes are defined by being recognized by 3 or more donors/different studies)
CD8+ T cells [2]; [4]
  Restriction: CD8

## 1069 (NLWNTFTRL) [compound 1069]
CD8+ T cells [1]; [3]
  Dominant: Yes (more dominant epitopes are defined by being recognized by 3 or more donors/different studies)
CD8+ T cells [2]; [4]
  Restriction: CD8

## 1321 (SFELLHAPATV) [compound 1321]
CD8+ T cells [1]; SARS-CoV-2 Ag S, CD8 epitopes
  Dominant: Yes (more dominant epitopes are defined by being recognized by 3 or more donors/different studies)
CD8+ T cells [2]; [5]
  Restriction: CD8

## 1082 (LLLDDFVEII) [compound 1082]
CD8+ T cells [1]; [3]
  Dominant: Yes (more dominant epitopes are defined by being recognized by 3 or more donors/different studies)
CD8+ T cells [2]; [4]
  Restriction: CD8

## 1315 (FQPTNGVGY) [compound 1315]
CD8+ T cells [1]; SARS-CoV-2 Ag S, CD8 epitopes
  Dominant: Yes (more dominant epitopes are defined by being recognized by 3 or more donors/different studies)
CD8+ T cells [2]; [5]
  Restriction: CD8

## 989 (MVMCGGSLYV) [compound 989]
CD8+ T cells [1]; [3]
  Dominant: Yes (more dominant epitopes are defined by being recognized by 3 or more donors/different studies)
CD8+ T cells [2]; [4]
  Restriction: CD8

## 1065 (MMISAGFSL) [compound 1065]
CD8+ T cells [1]; [3]
  Dominant: Yes (more dominant epitopes are defined by being recognized by 3 or more donors/different studies)
CD8+ T cells [2]; [4]
  Restriction: CD8

## 1319 (QPYRVVVL) [compound 1319]
CD8+ T cells [1]; SARS-CoV-2 Ag S, CD8 epitopes
  Dominant: Yes (more dominant epitopes are defined by being recognized by 3 or more donors/different studies)
CD8+ T cells [2]; [5]
  Restriction: CD8

## 905 (ALWEIQQV) [compound 905]
CD8+ T cells [1]; [3]
  Dominant: Yes (more dominant epitopes are defined by being recognized by 3 or more donors/different studies)
CD8+ T cells [2]; [4]
  Restriction: CD8

## 1389 (MIAQYTSAL) [compound 1389]
CD8+ T cells [1]; SARS-CoV-2 Ag S, CD8 epitopes
  Dominant: Yes (more dominant epitopes are defined by being recognized by 3 or more donors/different studies)
CD8+ T cells [2]; [5]
  Restriction: CD8

## 1057 (ALLADKFPV) [compound 1057]
CD8+ T cells [1]; [3]
  Dominant: Yes (more dominant epitopes are defined by being recognized by 3 or more donors/different studies)
CD8+ T cells [2]; [4]
  Restriction: CD8

## 1033 (SSNVANYQK) [compound 1033]
CD8+ T cells [1]; [3]
  Dominant: Yes (more dominant epitopes are defined by being recognized by 3 or more donors/different studies)
CD8+ T cells [2]; [4]
  Restriction: CD8

## 1379 (LLFNKVTLA) [compound 1379]
CD8+ T cells [1]; SARS-CoV-2 Ag S, CD8 epitopes
  Dominant: Yes (more dominant epitopes are defined by being recognized by 3 or more donors/different studies)
CD8+ T cells [2]; [5]
  Restriction: CD8

## 951 (FVDGVPFVV) [compound 951]
CD8+ T cells [1]; [3]
  Dominant: Yes (more dominant epitopes are defined by being recognized by 3 or more donors/different studies)
CD8+ T cells [2]; [4]
  Restriction: CD8

## 1362 (TEILPVSMTK) [compound 1362]
CD8+ T cells [1]; SARS-CoV-2 Ag S, CD8 epitopes
  Dominant: Yes (more dominant epitopes are defined by being recognized by 3 or more donors/different studies)
CD8+ T cells [2]; [5]
  Restriction: CD8

## 966 (VVDKYFDCY) [compound 966]
CD8+ T cells [1]; [3]
  Dominant: Yes (more dominant epitopes are defined by being recognized by 3 or more donors/different studies)
CD8+ T cells [2]; [4]
  Restriction: CD8

## 1386 (LTDEMIAQY) [compound 1386]
CD8+ T cells [1]; SARS-CoV-2 Ag S, CD8 epitopes
  Dominant: Yes (more dominant epitopes are defined by being recognized by 3 or more donors/different studies)
CD8+ T cells [2]; [5]
  Restriction: CD8

## 1012 (LYLQYIRKL) [compound 1012]
CD8+ T cells [1]; [3]
  Dominant: Yes (more dominant epitopes are defined by being recognized by 3 or more donors/different studies)
CD8+ T cells [2]; [4]
  Restriction: CD8

## 1347 (SPRRARSVA) [compound 1347]
CD8+ T cells [1]; SARS-CoV-2 Ag S, CD8 epitopes
  Dominant: Yes (more dominant epitopes are defined by being recognized by 3 or more donors/different studies)
CD8+ T cells [2]; [5]
  Restriction: CD8

## 1365 (STECSNLLLQY) [compound 1365]
CD8+ T cells [1]; SARS-CoV-2 Ag S, CD8 epitopes
  Dominant: Yes (more dominant epitopes are defined by being recognized by 3 or more donors/different studies)
CD8+ T cells [2]; [5]
  Restriction: CD8

## 1019 (VLQAVGACV) [compound 1019]
CD8+ T cells [1]; [3]
  Dominant: Yes (more dominant epitopes are defined by being recognized by 3 or more donors/different studies)
CD8+ T cells [2]; [4]
  Restriction: CD8

## 1041 (VYIGDPAQL) [compound 1041]
CD8+ T cells [1]; [3]
  Dominant: Yes (more dominant epitopes are defined by being recognized by 3 or more donors/different studies)
CD8+ T cells [2]; [4]
  Restriction: CD8

## 939 (LLMPILTLT) [compound 939]
CD8+ T cells [1]; [3]
  Dominant: Yes (more dominant epitopes are defined by being recognized by 3 or more donors/different studies)
CD8+ T cells [2]; [4]
  Restriction: CD8

## 1398 (NQKLIANQF) [compound 1398]
CD8+ T cells [1]; SARS-CoV-2 Ag S, CD8 epitopes
  Dominant: Yes (more dominant epitopes are defined by being recognized by 3 or more donors/different studies)
CD8+ T cells [2]; [5]
  Restriction: CD8

## 901 (NTCDGTTFTY) [compound 901]
CD8+ T cells [1]; [3]
  Dominant: Yes (more dominant epitopes are defined by being recognized by 3 or more donors/different studies)
CD8+ T cells [2]; [4]
  Restriction: CD8

## 1304 (NYNYLYRLFRK) [compound 1304]
CD8+ T cells [1]; SARS-CoV-2 Ag S, CD8 epitopes
  Dominant: Yes (more dominant epitopes are defined by being recognized by 3 or more donors/different studies)
CD8+ T cells [2]; [5]
  Restriction: CD8

## 1324 (GPKKSTNLV) [compound 1324]
CD8+ T cells [1]; SARS-CoV-2 Ag S, CD8 epitopes
  Dominant: Yes (more dominant epitopes are defined by being recognized by 3 or more donors/different studies)
CD8+ T cells [2]; [5]
  Restriction: CD8

## 1461 (QYIKWPWYI) [compound 1461]
CD8+ T cells [1]; SARS-CoV-2 Ag S, CD8 epitopes
  Dominant: Yes (more dominant epitopes are defined by being recognized by 3 or more donors/different studies)
CD8+ T cells [2]; [5]
  Restriction: CD8

## 1085 (GVAMPNLYK) [compound 1085]
CD8+ T cells [1]; [3]
  Dominant: Yes (more dominant epitopes are defined by being recognized by 3 or more donors/different studies)
CD8+ T cells [2]; [4]
  Restriction: CD8
